For data set [1], the system named is tissue‐type plasminogen activator–induced fibrinolysis in mouse whole blood. Description: Whole blood clot formation and lysis assay (ROTEM thromboelastometry), mouse blood. Type of data set: biochemical. Conditions: tPA‐induced fibrinolysis, read-out: effective concentration to delay lysis time by 50%. The method, then:
Citrated blood samples from (n=4) rats (Sprague Dawley) and (n=16) mice ([…], Harlan Iberica) were assayed with a ROTEM analyzer (Pentapharm GmbH, Munich, Germany) as previously described.20 In a prewarmed cuvette and holder we pipetted 1 μL tissue-type plasminogen activator (150 000 U/mL), 20 μL Start-tem reagent (Pentapharm GmbH), 20 μL In-tem reagent (Pentapharm GmbH), 3 μL DMSO (SIGMA) or test compounds in DMSO, and 300 μL prewarmed citrated blood. The cup holder containing the sample mixture was placed immediately on the appropriate channel. Measurements were recorded for 60 minutes to allow clot formation and lysis, and results are expressed as effective concentration to delay lysis time by 50%.

For the next data set, the target named is T1, MMP‐2 (Homo sapiens, UniProt P08253).
T1 construct: GenScript (contract testing)
T1 sequence (P08253 110-660): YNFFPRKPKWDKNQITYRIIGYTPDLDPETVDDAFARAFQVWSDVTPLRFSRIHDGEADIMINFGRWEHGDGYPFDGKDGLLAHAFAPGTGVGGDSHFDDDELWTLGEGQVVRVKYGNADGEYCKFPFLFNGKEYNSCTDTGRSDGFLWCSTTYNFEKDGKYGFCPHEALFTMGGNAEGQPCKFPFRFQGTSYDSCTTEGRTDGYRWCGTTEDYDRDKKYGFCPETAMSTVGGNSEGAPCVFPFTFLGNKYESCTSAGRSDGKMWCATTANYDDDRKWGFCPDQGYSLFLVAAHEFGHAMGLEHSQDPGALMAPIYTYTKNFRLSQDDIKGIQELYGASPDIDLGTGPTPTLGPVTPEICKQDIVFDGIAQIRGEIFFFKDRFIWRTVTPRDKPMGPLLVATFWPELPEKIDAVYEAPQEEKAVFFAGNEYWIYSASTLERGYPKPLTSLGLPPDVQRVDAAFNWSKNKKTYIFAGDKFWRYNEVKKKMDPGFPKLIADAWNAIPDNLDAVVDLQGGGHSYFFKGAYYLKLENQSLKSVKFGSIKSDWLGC
As to the kind of experiment: MMP enzyme activity assay. Type of data set: biochemical. The note with it: read-out: MMP Inhibitory Activity (IC50), MMP‐2. On the procedure:
(§1) Protease stock solutions (10 mmol/L) were diluted with assay buffer to make final test solutions containing no more than 2.0% DMSO. The samples were dispensed into plates; substrate was added and read with PHERAstar PLUS (BMG Labtech, Ortenberg, Germany) plate reader.

The next data set has as its target T2, MMP‐7 (Homo sapiens, UniProt P09237).
T2 construct: GenScript (contract testing)
T2 sequence (P09237 95-267): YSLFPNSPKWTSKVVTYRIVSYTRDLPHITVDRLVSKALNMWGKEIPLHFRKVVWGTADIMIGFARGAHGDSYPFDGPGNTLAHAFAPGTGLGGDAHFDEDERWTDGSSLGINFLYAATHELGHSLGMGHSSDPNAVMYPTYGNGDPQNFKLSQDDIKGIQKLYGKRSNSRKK
Description: MMP enzyme activity assay. Type of data set: biochemical. The note with it: read-out: MMP Inhibitory Activity (IC50), MMP‐7. On the procedure:
as §1

In the next data set the target is T3, MMP‐9 (Homo sapiens, UniProt P14780).
T3 construct: GenScript (contract testing)
Description: MMP enzyme activity assay. Conditions: read-out: MMP Inhibitory Activity (IC50), MMP‐9. Type of data set: biochemical. The method, then:
as §1

For another data set, the system named is interleukin‐6. Description: Plasma interleukin‐6 ELISA after ICH. Type of data set: in vivo, rat. The note with it: 1 mg/kg iv 1 hour after collagenase; 3 hours, P<0.05 vs control. The method, then: Blood samples (0.5 mL) were drawn from the tail vein before surgery, immediately after surgery, and at 1 hour, 3 hours, 24 hours, and 14 days. Citrate or EDTA plasma was obtained by centrifugation, and samples were stored at −80°C. Enzyme‐linked immunosorbent assay was used to measure interleukin‐6 (IL‐6, ref. KRC0061, Life Technologies, Thermo Fisher Scientific, Waltham, MA), cellular fibronectin (ref. MBS007311, MyBioSource, San Diego, CA), and thrombin‐antithrombin complex (Enzygnost TAT, ref. OWMG15, Siemens Healthcare, Erlangen, Germany) in plasma, as biomarkers of inflammation, cellular damage, and hypercoagulability, respectively. The intra‐assay and interassay coefficients of variation for all molecular markers were <10%.
(In general: In an ELISA, binding on a coated surface is turned into a signal by an enzyme label.)

Data set [2] is described as follows: Prothrombin time in plasma after ICH. Type of data set: in vivo, rat. Conditions: percentage of the standard value, n=3. The method, then: Prothrombin time (PT) and activated partial thromboplastin time (aPTT) were measured with STA‐Neoplastin R and PTT reagents (STA‐Compact, Stago, Barcelona, Spain). PT results were expressed as percentage of the standard value, and aPTT results were expressed in seconds.

Data set [3] relates to wide panel of metalloenzymes, including cathepsins, caspases, kalikreins, and neutrophil proteases. The arrangement: method as in PMID 25686022. Conditions: cited from earlier work.

T3 sequence (P14780 94-707, species assumed): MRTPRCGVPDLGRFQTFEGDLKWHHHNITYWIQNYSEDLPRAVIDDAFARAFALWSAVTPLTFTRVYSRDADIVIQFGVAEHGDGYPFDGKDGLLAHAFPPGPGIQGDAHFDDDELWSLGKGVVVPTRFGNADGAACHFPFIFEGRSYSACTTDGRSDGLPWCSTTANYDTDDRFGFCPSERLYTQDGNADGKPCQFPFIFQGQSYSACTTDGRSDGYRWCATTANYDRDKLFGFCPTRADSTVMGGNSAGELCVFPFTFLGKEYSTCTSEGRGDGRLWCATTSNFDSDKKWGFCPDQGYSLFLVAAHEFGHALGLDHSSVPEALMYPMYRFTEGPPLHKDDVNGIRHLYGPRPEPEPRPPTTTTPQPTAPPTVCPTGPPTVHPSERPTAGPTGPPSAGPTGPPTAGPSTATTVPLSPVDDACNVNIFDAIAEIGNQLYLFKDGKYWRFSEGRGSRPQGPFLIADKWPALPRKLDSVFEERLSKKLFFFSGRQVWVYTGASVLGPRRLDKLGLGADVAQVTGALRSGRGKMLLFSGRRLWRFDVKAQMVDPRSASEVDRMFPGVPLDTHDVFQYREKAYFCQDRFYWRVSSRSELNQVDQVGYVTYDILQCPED

As usually defined, the IC50 is the midpoint of a concentration-inhibition curve. Consider `CNC(=O)c1ccc(Oc2ccc(S(=O)(=O)[C@]3(C(=O)NO)CCC4(CCNCC4)C3)cc2)cc1` [CM352, 4‐[4‐[[(3R)‐3‐(Hydroxycarbamoyl)‐8‐azaspiro[4.5]decan‐3‐yl]sulfonyl]phenoxy]‐N‐methylbenzamide], for which the EC50 in data set [1] was 200 nM. Besides, the figures for the IC50 at MMP‐2, on MMP‐7 and at MMP‐9 were 8.4 nM, 16000 nM and 10 nM, respectively. Moreover, the “circulating IL‐6 levels” value in the data set on interleukin‐6 is given as “significant reduction”. The PT in data set [2] (3 H) turned out to be 62.0±2.6%; in data set [2] (5 H), 63.7±4.0%; in data set [2] (24 H) it was 65.1±7.6%; in data set [2] (Basal), 62.7±5.1%. In addition, in data set [3], the “off‐target effect on metalloenzyme panel” value was “no significant effect”.

(Values after publication PMC5669199, “CM352 Reduces Brain Damage and Improves Functional Recovery in a Rat Model of Intracerebral Hemorrhage” (Journal of the American Heart Association: Cardiovascular …, 2017).)
